Experimental data taken from the supplement of paper PMC10307832.

Assays:
Experiment in all cases: relative viability (nuclei count vs DMSO), 5 days (fraction); higher = more cells survive
TPCA-1 + Bortezomib = compound: C1=CC(=CC=C1C2=CC(=C(S2)NC(=O)N)C(=O)N)F [TPCA-1] + CC(C)C[C@H](NC(=O)[C@H](Cc1ccccc1)NC(=O)c1cnccn1)B(O)O [Bortezomib] (partner 0.002 µM)
Summary of the method: (§1)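 Relative viability equals treated-well nuclei counts divided by vehicle-well nuclei counts. Counts came from 4× images of lung cancer cell lines grown in 1536-well plates for 5 days after pin-tool dosing on the day after seeding. Dosing used one drug alone or a fixed anchor-drug dose plus five library-drug doses (not always all listed) in √10 steps, and values are medians of duplicate plates.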

[1] = compound: C[C@]12O[C@H](C[C@]1(O)CO)n1c3ccccc3c3c4c(c5c6ccccc6n2c5c31)CNC4=O [Lestaurtinib] + C[C@@H](Oc1cc(-c2cnn(C3CCNCC3)c2)cnc1N)c1c(Cl)ccc(F)c1Cl [Crizotinib] (partner 1 µM)
Summary of the method: as §1

[2] = compound: C[C@]12O[C@H](C[C@]1(O)CO)n1c3ccccc3c3c4c(c5c6ccccc6n2c5c31)CNC4=O [Lestaurtinib] + Cc1cc(Nc2cc(N3CCN(C)CC3)nc(Sc3ccc(NC(=O)C4CC4)cc3)n2)n[nH]1 [Tozasertib] (partner 0.1 µM)
Summary of the method: as §1

Lestaurtinib + Olaparib = compound: C[C@]12O[C@H](C[C@]1(O)CO)n1c3ccccc3c3c4c(c5c6ccccc6n2c5c31)CNC4=O [Lestaurtinib] + O=C(c1cc(Cc2n[nH]c(=O)c3ccccc23)ccc1F)N1CCN(C(=O)C2CC2)CC1 [Olaparib] (partner 8 µM)
Summary of the method: as §1

## UMC-11
TPCA-1 + Bortezomib; first compound 0.04 µM
  relative viability: 0.663
TPCA-1 + Bortezomib; first compound 0.1265 µM
  relative viability: 0.667
TPCA-1 + Bortezomib; first compound 0.4 µM
  relative viability: 0.798
TPCA-1 + Bortezomib; first compound 1.265 µM
  relative viability: 0.735
TPCA-1 + Bortezomib; first compound 4 µM
  relative viability: 0.134
[1]; first compound 0.005 µM
  relative viability: 0.5
[1]; first compound 0.01581 µM
  relative viability: 0.6
[1]; first compound 0.05 µM
  relative viability: 0.416
[1]; first compound 0.1581 µM
  relative viability: 0.248
[1]; first compound 0.5 µM
  relative viability: 0.107
[2]; first compound 0.005 µM
  relative viability: 0.21
[2]; first compound 0.01581 µM
  relative viability: 0.206
[2]; first compound 0.05 µM
  relative viability: 0.217
[2]; first compound 0.1581 µM
  relative viability: 0.18
[2]; first compound 0.5 µM
  relative viability: 0.179
Lestaurtinib + Olaparib; first compound 0.005 µM
  relative viability: 0.402
Lestaurtinib + Olaparib; first compound 0.01581 µM
  relative viability: 0.466
Lestaurtinib + Olaparib; first compound 0.05 µM
  relative viability: 0.384
Lestaurtinib + Olaparib; first compound 0.1581 µM
  relative viability: 0.273
Lestaurtinib + Olaparib; first compound 0.5 µM
  relative viability: 0.171
